Here are results for 36 molecules from patent publication US6218431A, “Substituted biphenyls” (Bayer Corporation, priority 1997, dated 2001).

T1 sequence (P47871 26-477): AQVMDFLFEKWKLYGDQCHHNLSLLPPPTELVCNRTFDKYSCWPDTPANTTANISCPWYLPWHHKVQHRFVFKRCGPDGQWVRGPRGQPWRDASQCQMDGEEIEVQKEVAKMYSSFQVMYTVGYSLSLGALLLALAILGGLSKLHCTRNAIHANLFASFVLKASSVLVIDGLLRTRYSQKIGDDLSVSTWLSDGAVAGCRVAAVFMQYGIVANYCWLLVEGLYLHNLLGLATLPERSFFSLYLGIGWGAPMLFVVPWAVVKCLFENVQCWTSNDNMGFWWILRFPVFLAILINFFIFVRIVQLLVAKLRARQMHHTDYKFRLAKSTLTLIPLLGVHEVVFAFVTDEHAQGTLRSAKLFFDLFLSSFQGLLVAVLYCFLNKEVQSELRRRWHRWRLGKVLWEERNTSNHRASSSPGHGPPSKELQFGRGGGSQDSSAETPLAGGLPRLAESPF

One test addresses T1, glucagon receptor (Homo sapiens, UniProt P47871).
T1 construct: expressed in transfected cells; host or cells: Chinese Hamster Ovary cells (CHO-HGR), membranes
Briefly: glucagon receptor binding assay (125I-glucagon, CHO-HGR membranes). The note with it: 20 μM; reported where 20 μM did not reduce glucagon binding by 50%. As to the method:
The affinity for the glucagon receptor of compounds of the present invention is determined by the glucagon receptor binding assay. Membranes were prepared from Chinese Hamster Ovary cells expressing the glucagon receptor (CHO-HGR) by scraping the cells into hypotonic lysis buffer (10 mM Tris, pH 7.4, 2 mM EDTA, 5 mM MgCl2 and 1 mM PMSF) and subjecting the material to Polytron homogenization. Nuclei were removed by a 15-min 800×g centrifugation step conducted at 4° C. Membranes containing the receptor were collected by centrifugation at 15,000×gfor 15 min at 4° C. The membranes were washed once in lysis buffer and suspended in 0.25 M sucrose, 10 mM Tris, 5 mM EDTA, pH 7.4. The membranes were used in ligand binding studies as reported (Yoo-Warren, H., Willse, A. G., Hancock, N., Hull, J., McCaleb, M., and Livingston, J. Regulation of Rat Glucagon Receptor Expression. Biochem. Biophysical Res. Commun. 1994, 205, 347-353). In brief, 10 ug of membrane protein was incubated in 130 μl of binding buffer that consisted of 20 mM Tris, […], 1 mM EDTA, 1 mg/ml BSA, and 1 mg/ml bacitracin. The membrane suspension was placed in each well of a 96-well filtration plate (glass fiber type C, Millipore). […] Following the addition of test compound, 50 μl of ^125 I-glucagon (9 fmol) (NEN) was added to each well. Control wells contained membranes, 0.5% DMSO (solvent for test compounds), radiolabeled glucagon without and with excess native glucagon (1 μM) to establish nonspecific binding. The plates were incubated for 60 min at room temperature, and then filtered on a Mllipore vacuum apparatus. Following a wash step with ice-cold PBS/0.1% BSA, the filters were punched into test tubes, and the membrane bound radioactivity was determined.
On to `CCCCCc1c(C(C)C)nc(C(C)C)c(C(O)CC)c1-c1ccc(F)cc1` (racemic) [Example 117], for which the inhibition (commonly the change of the read-out against control, counted positive when it falls) at 20 µM amounted to 45.1%. In turn, `CCCCCc1c(CN2CCOCC2)nc(C(C)C)c(CO)c1-c1ccc(F)cc1` [Example 199, 2-Morpholinomethyl-3-pentyl-4-(4-fluorophenyl)-5-hydroxymethyl-6-isopropylpyridine] yielded an inhibition at 20 µM of 8.67%. The molecule `CCCCCc1c(C(C)C)nc(C(C)C)c(CO)c1-c1ccc(F)c(C(C)O)c1` (stereo not drawn) [Example 182, 2,6-Diisopropyl-3-hydroxymethyl-4-[4-fluoro-3-(1-hydroxyethyl)phenyl]-5-pentylpyridine] displayed an inhibition at 20 µM of 49.1%. `CCCC=Cc1c(C(C)C)nc(C(C)C)c(CO)c1-c1ccccc1OCc1ccccc1` [Example 162, 2,6-Diisopropyl-3-hydroxymethyl-4-(2-benzyloxyphenyl)-5-(pent-1-enyl)pyridine] displayed an inhibition at 20 µM of 13.9%.

For the molecule `CCCCCc1c(C(C)C)nc(C(C)C)c(CO)c1-c1cccc(OC)c1` [Example 171, 2,6-Diisopropyl-3-hydroxymethyl-4-(3-methoxyphenyl)-5-pentylpyridine], the “% Inhibition (20 μM)” value came to 48.37%.

Regarding `CC(C)c1nc(C(C)C)c(C(O)c2ccccc2)c(-c2ccc(F)cc2)c1CO` (racemic) [Example 96, (±)-2,6-Diisopropyl-3-hydroxymethyl-4-(4-fluorophenyl)-5-(hydroxy-phenylmethyl)pyridine], the inhibition at 20 µM was 27.8%. `CC(C)c1nc(C(C)C)c(CCCCO)c(-c2ccc(F)cc2)c1CO` [Example 88, 2,6-Diisopropyl-3-hydroxymethyl-4-(4-fluorophenyl)-5-(4-hydroxy-butyl)pyridine] came in with an inhibition at 20 µM of 24.8%. The molecule `CCCC=Cc1c(C(C)C)nc(C(C)C)c(CO)c1-c1ccc(S(C)(=O)=O)cc1` [Example 176, 2,6-Diisopropyl-3-hydroxymethyl-4-[4-(methylsulfonyl)phenyl]-5-(pent-1-enyl)pyridine] returned an inhibition at 20 µM of 13.8%. In turn, `CCCC=Cc1c(C(C)C)nc(C(C)C)c(CO)c1-c1ccc(OCc2ccccc2)cc1` [Example 160, 2,6-Diisopropyl-3-hydroxymethyl-4-(4-benzyloxyphenyl)-5-(pent-1-enyl)pyridine] displayed an inhibition at 20 µM of 21%.

Consider `CCCC=Cc1c(C(C)C)nc(C(C)C)c(CO)c1-c1ccc(SC)cc1` [Example 174, 2,6-Diisopropyl-3hydroxymethyl-4-[4-(methylthio)phenyl]-5-(pent-1-enyl)pyridine], for which testing at 20 µM gave an inhibition of 33.4%.

The same test, now with this note: 125I-glucagon; 60 min at room temperature; read-out: IC50.
As to `CC(C)c1nc(C(C)C)c(CSCCc2ccccc2)c(-c2ccc(F)cc2)c1CO` [Example 65, 2,6-Diisopropyl-3-hydroxymethyl-4-(4-fluorophenyl)-5-[(phenethyl)-thiomethyl]pyridine], the half-inhibitory concentration (IC50) (in general, the concentration at which inhibition is half-maximal) was determined as 750 nM. With `CCCCCc1c(C(C)C)nc(C(C)C)c(CO)c1-c1ccccc1F` [Example 138, 2,6-Diisopropyl-3-hydroxymethyl-4-(2-fluorophenyl)-5-pentylpyridine], the IC50 came to 9000 nM. In the case of `CCCCCc1c(C(C)C)nc(C(C)C)c(C(O)C(F)(F)F)c1-c1ccc(F)cc1` (racemic) [Example 118, (±)-2,6-Diisopropyl-3-(2,2,2-trifluoro-1-hydroxy)ethyl-4-(4-fluoro-phenyl)-5-pentylpyridine], the IC50 came to 13000 nM.

With `CC(C)CC=Cc1c(C(C)C)nc(C(C)C)c(CO)c1-c1ccc(F)cc1` [Example 28, 2,6Diisopropyl-3-hydroxymethyl-4-(4-fluorophenyl)-5-(4-methyl-1-pentenyl)pyridine], the IC50 came to 1000 nM. Regarding `CC(C)c1nc(C(C)C)c(CSc2cccc(F)c2)c(-c2ccc(F)cc2)c1CO` [Example 59, 2,6-Diisopropyl-3-hydroxymethyl-4-(4-fluorophenyl)-5-[(3-fluoro-phenyl)thio]methylpyridine], the IC50 was 1000 nM. `CC(C)c1cc(C(C)C)c(CSc2c(F)c(F)cc(F)c2F)c(-c2ccc(F)cc2)c1CO` [Example 288]: the IC50 was determined as 2000 nM. With `COc1cccc(SCc2c(C(C)C)nc(C(C)C)c(CO)c2-c2ccc(F)cc2)c1` [Example 54, 2,6-Diisopropyl-3-hydroxymethyl-4-(4-fluorophenyl)-5-[(3-methyoxy-phenyl)thio]methylpyridine], the IC50 worked out at 1800 nM. As to `CCCC=Cc1c(C(C)C)nc(C(C)C)c(CO)c1-c1ccc(Cl)cc1` [Example 143, 2,6-Diisopropyl-3-hydroxymethyl-4-(4-chlorophenyl)-5-(pent-1-enyl)pyridine], the IC50 was 900 nM. On to `C=CCOCc1nc(C(C)C)c(CO)c(-c2ccc(F)cc2)c1CCCCC` [Example 203, 2-(Prop-2-enyloxy)methyl-3-pentyl-4-(4-fluorophenyl)-5-hydroxymethyl-6-isopropylpyridine], for which the IC50 amounted to 6300 nM. With `CCCCCc1c(C(C)C)nc(C)c(CO)c1-c1ccc(F)cc1` [Example 198, 2-Isopropyl-3-pentyl-4-(4-fluorophenyl)-5-hydroxymethyl-6-methylpyridine], the half-maximal inhibitory concentration (IC50) is 17000 nM.

Turning to `CCCC=Cc1c(C(C)C)nc(C(C)C)c(CO)c1-c1ccc(F)c(F)c1` [Example 158, 2,6-diisopropyl-3-hydroxymethyl-4-(3,4-difluorophenyl)-5-(pent-1-enyl)pyridine], the IC50 came out at 1800 nM. Regarding `CC(C)CCCc1c(C(C)C)nc(C(C)C)c(CO)c1-c1ccc(F)cc1` [Example 30, 2,6-Diisopropyl-3-hydroxymethyl-4-(4-fluorophenyl)-5-(4-methylpentyl)pyridine], the 50% inhibitory concentration (IC50) is 900 nM. Turning to `CC=Cc1c(C(C)C)nc(C(C)C)c(CO)c1-c1ccccc1` [Example 12], the IC50 was found to be 1700 nM. As to `CC(C)c1nc(C(C)C)c(C(C)O)c(-c2ccc(F)cc2)c1-c1ccccc1` (stereo not drawn) [Example 233, 2,6-Diisopropyl-3-(1-hydroxyethyl)-4-(4-fluorophenyl)-5-phenylpyridine], the IC50 is 600 nM.

Turning to `CCCCc1c(C(C)C)nc(C(C)C)c(CO)c1-c1ccc(F)cc1` [Example 24, 2,6-Diisopropyl-3-hydroxymethal-4-(4fluorophenyl)-5-butylpyridine], the IC50 is 750 nM. `CCCCCc1c(C(O)CC)nc(C(C)C)c(CO)c1-c1ccc(F)cc1` (stereo not drawn) [Example 212, 2-(1-Hydroxypropyl)-3-pentyl-4-(4-fluorophenyl)-5-hydroxymethyl-6-isopropylpyridine]: the IC50 was determined as 14000 nM.

Regarding `CCCc1c(C(C)C)cc(C(C)C)c(C(C)O)c1-c1ccc(F)cc1` (single isomer, unassigned; (+)) [Example 245, (+)-3,5-Diisopropyl-2-(1-hydroxyethyl)-6-propyl-4'-fluoro-1,1'-biphenyl], the IC50 stood at 300 nM.

For the molecule `CC(C)c1nc(C(C)C)c(CN2CCCCC2)c(-c2ccc(F)cc2)c1CO` [Example 70, 2,6-Diisopropyl-3-hydroxymethyl-4-(4-fluorophenyl)-5-(piperidinomethyl)pyridine], the IC50 amounted to 12000 nM. Consider `Cc1ccc(/C=C/c2c(C(C)C)nc(C(C)C)c(CO)c2-c2ccc(F)cc2)cc1` [Example 42, 2,6-Diisopropyl-3-hydroxymethyl-4-(4-fluorophenyl)-5-[2(E)-(4-methyl-phenyl)ethenyl]pyridine], for which the IC50 worked out at 700 nM. In the case of `CCCCCCc1c(C(C)C)nc(C(C)C)c(CO)c1-c1ccc(F)cc1` [Example 23, 2,6-Diisopropyl-3-hydroxymethyl-4-(4-fluorophenyl)-5-hexylpyridine], the IC50 was 390 nM.

As to `CCCc1c(C(C)C)nc(C(C)C)c(CO)c1-c1ccc(F)cc1O` (single isomer, unassigned) [Example 239-E1, 2,6-Diisopropyl-3-(1-hydroxymethyl)-4-(4-fluoro-2-hydroxyphenyl)-5-propylpyridine], the IC50 came out at 2500 nM. For the molecule `Cc1ccc(CCCc2c(C(C)C)nc(C(C)C)c(CO)c2-c2ccc(F)cc2)cc1` [Example 86, 2,6-Diisopropyl-3-hydroxymethyl-4-(4-fluorophenyl)-5-[3-(4methyl-phenyl)propyl]pyridine], the IC50 amounted to 1100 nM. For the molecule `Cc1ccc(CCc2c(C(C)C)nc(C(C)C)c(CO)c2-c2ccc(F)cc2)cc1` [Example 45, 2,6-Diisopropyl-3-hydroxyl methyl-4-(4-fluorophenyl)-5-[2-(4-methyl-phenyl)ethyl]pyridine], the IC50 amounted to 1100 nM.

Regarding `CCCCCc1c(C(C)O)nc(C(C)C)c(CO)c1-c1ccc(F)cc1` (stereo not drawn) [Example 210, 2-(1-Hydroxyethyl)-3-pentyl-4-(4-fluorophenyl)-5-hydroxymethyl-6-isopropylpyridine], the IC50 turned out to be 18000 nM.

Turning to `CC(C)c1nc(C(C)C)c(CO)c(-c2ccc(F)cc2)c1C=CCCc1ccccc1` [Example 38, 2,6-Diisopropyl-3-hydroxymethyl-4-(4-fluorophenyl)-5-(4phenyl-1-butenyl)pyridine], the IC50 came out at 600 nM. The same measure, in the same setting: the result for `Cc1ccccc1CCc1c(C(C)C)nc(C(C)C)c(CO)c1-c1ccc(F)cc1` [Example 43, 2,6-Diisopropyl-3-hydroxymethyl-4-(4-fluorophenyl)-5-[2-(2-methyl-phenyl)ethyl]pyridine] reads 1800 nM.
